The nature of series [1]: Hepatocyte stability (mouse). In kind it is in vitro ADME. The note with it: 0.5×10^6 viable cells/mL. How it is done:
10 mM and 100 μM stock solutions of test compound(s) and a positive control were prepared in appropriate solvent (DMSO). In separate conical tubes, the 10 mM test compound and the positive control were diluted to 100 μM by combining 198 μL of 50% acetonitrile/50% water and 2 μL of 10 mM stock. The 100 μM test compound and the positive control were diluted to 30 μM by combining 140 μL of 50% acetonitrile/50% water and 60 μL of 100 μM stock solution. The 100 μM test compound and the positive control were diluted to 10 μM by combining 180 μL of 50% acetonitrile/50% water and 20 μL of 100 μM stock solution. The 100 μM test compound and the positive control were diluted to 3 μM by combining 194 μL of 50% acetonitrile/50% water and 6 μL of 100 μM stock solution.
Incubation medium (William's E Medium supplemented with GlutaMAX) and hepatocyte thawing medium was placed in a 37° C. water bath, and allowed to warm for at least 15 minutes prior to use. […]
Using AOPI staining solution, cells were counted and the viable cell density was determined. […]
All calculations were carried out using Microsoft Excel. Peak areas were determined from extracted ion chromatograms. […]
The in vitro half-life (in vitro t1/2) was determined from the slope value: in vitro t1/2=0.693/k

Another series has as its target B3-AR (Homo sapiens (Human), UniProt P13945). Description: cAMP potency assay, B3-AR expressing CHO-K1 cells. In kind it is cell-based.
Series [2] can be described thus: Microsomal stability (dog). In kind it is in vitro ADME. As to conditions: liver microsomes 0.5 mg/mL; method gives CLint in μL/min/mg protein. As for the experimental part: The master solution was prepared as follows.
With NADPH: 10 μL of 20 mg/mL liver microsomes and 40 μL of 10 mM NADPH were added to the incubations. The final concentrations of microsomes and NADPH were 0.5 mg/mL and 1 mM, respectively.
Without NADPH: 10 μL of 20 mg/mL liver microsomes and 40 μL of ultra-pure H2O were added to the incubations. The final concentration of microsomes was 0.5 mg/mL.
The reaction was started with the addition of 4 μL of 3, 10, 30 and 100 μM test compound solution or control compound solution at the final concentration of 0.03, 0.1, 0.3 and 1 μM and carried out at 37° C.
Aliquots of 50 μL were taken from the reaction solution at 0, 15, 30, 45 and 60 min. The reaction was stopped by the addition of 4 volumes of cold acetonitrile with IS (100 nM alprazolam, 200 nM labetalol, 200 nM caffeine and 2 μM ketoprofen). Samples were centrifuged at 3, 220 g for 40 minutes. Aliquot of 100 μL of the supernatant was mixed with 100 μL of ultra-pure H2O and then used for LC-MS/MS analysis.
Peak areas were determined from extracted ion chromatograms. The slope value, k, was determined by linear regression of the natural logarithm of the remaining percentage of the parent drug vs. incubation time curve.
The in vitro half-life (in vitro t1/2) was determined from the slope value: in vitro t1/2=−(0.693/k) […]

The mark [3] stands for this setting: read-out: Average pEC50 [Receptor subtype: B3-AR, Cell type: CHO-K1] (converted).

Like-named read-outs stand apart in the source and are kept apart here. Bounds are passed on as bounds.

Chain of B3-AR (P13945 whole entry, species assumed): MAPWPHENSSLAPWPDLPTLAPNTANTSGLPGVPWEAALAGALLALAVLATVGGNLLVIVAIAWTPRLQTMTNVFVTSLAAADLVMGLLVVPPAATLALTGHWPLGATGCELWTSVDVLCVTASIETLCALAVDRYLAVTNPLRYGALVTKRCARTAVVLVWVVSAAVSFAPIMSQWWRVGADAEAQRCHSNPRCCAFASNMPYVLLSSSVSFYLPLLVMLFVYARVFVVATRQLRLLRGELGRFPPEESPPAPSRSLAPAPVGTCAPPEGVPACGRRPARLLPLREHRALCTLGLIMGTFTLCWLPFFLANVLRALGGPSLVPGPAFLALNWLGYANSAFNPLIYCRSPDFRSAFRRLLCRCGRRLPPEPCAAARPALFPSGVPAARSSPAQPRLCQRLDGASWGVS

Regarding `Cc1ncccc1[C@@H](O)CNC(C)(C)C` [Compound 03-115], the “Hepatocyte stability, Mouse” value in series [1] is on record as 1.08 μL/min/10^6 cells. Also, the EC50 on B3-AR (setting [3]) was more than 1000 nM.

In series [2], `CC(C)(C)NC[C@H](O)c1cccc(C(F)(F)F)n1` [Compound 03-3] gave an Intrinsic clearance (CLint), dog liver microsomes of 7.99 µL/min/mg protein.

`CC(C)(C)NC[C@H](O)c1cccc(C#N)n1` [Compound 03-5, (S)-6-(2-(tert-butylamino)-1-hydroxyethyl)picolinonitrile] returned an Intrinsic clearance (CLint), dog liver microsomes in series [2] of 4.32 µL/min/mg protein. Also, the “Hepatocyte stability, Mouse” value in series [1] amounted to 1.46 μL/min/10^6 cells. The EC50 on B3-AR (read-out: Average EC50 [Receptor subtype: B3-AR, Cell type: CHO-K1]) is 100 to 1000 nM; on B3-AR (setting [3]), more than 1000 nM.

Source of the values: US10947196B2, “Beta adrenergic agonist and methods of using the same” (CURASEN THERAPEUTICS, INC., priority 2019, dated 2021).
